Test results as given in US20230079819A1, “COMPOUNDS AND USES THEREOF” (Foghorn Therapeutics Inc., priority 2019, published 2023).

Tests used:
BRG-1 = target: T1, BRG-1 (Homo sapiens, UniProt P51532); experiment: ATPase catalytic activity of BRG-1, ADP-Glo in vitro biochemical assay; conditions: ATPase catalytic activity, 30 nM BRG-1, 400 μM ATP, read-out: BRG1 IP50
T1 construct: made in house; host or cells: High Five insect cells

BRM = target: T2, BRM (Homo sapiens, UniProt P51531); experiment: ATPase catalytic activity of BRM, ADP-Glo in vitro biochemical assay; conditions: ATPase catalytic activity, 30 nM BRM, 400 μM ATP, read-out: BRM IP50
T2 construct: made in house; host or cells: High Five insect cells
T2 sequence (P51531 whole entry): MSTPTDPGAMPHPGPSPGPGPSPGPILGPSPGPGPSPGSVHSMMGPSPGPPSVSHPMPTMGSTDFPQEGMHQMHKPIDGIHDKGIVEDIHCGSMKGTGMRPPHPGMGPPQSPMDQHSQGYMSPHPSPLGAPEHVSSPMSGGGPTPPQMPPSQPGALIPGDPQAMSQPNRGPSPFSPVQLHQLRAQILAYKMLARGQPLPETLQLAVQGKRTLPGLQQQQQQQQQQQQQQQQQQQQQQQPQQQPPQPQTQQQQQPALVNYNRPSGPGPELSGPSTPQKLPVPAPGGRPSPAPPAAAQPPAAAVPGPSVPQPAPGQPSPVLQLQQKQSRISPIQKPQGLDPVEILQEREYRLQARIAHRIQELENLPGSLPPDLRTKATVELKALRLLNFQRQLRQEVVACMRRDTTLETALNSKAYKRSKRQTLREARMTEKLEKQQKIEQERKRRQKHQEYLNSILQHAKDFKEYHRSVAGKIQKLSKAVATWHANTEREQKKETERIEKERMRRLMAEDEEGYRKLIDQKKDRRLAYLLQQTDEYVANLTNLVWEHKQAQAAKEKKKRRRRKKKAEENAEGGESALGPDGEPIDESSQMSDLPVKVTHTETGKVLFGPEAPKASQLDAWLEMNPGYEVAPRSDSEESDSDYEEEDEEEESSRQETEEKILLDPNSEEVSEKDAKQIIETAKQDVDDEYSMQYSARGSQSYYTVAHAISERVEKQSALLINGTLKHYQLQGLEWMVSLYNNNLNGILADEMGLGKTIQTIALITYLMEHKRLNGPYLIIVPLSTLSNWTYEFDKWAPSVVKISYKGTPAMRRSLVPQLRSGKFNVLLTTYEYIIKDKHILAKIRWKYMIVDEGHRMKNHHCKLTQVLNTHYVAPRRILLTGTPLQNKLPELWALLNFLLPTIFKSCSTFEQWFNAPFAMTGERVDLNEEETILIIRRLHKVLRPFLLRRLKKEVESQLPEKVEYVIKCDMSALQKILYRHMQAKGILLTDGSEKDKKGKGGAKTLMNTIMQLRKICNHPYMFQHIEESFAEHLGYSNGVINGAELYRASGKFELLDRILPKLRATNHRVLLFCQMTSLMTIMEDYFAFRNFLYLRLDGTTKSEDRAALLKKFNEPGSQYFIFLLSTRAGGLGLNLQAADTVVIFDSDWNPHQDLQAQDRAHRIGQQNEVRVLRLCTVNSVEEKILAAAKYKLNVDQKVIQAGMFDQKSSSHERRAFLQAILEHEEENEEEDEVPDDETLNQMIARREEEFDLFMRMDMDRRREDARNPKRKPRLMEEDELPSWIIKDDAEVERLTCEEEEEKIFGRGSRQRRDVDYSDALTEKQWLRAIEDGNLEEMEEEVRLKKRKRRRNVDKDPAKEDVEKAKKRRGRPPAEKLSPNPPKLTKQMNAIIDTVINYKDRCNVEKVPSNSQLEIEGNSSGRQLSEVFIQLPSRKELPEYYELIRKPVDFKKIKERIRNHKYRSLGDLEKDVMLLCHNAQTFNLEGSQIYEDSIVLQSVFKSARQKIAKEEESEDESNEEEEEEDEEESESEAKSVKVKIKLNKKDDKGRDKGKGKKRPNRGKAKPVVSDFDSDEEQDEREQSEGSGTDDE

T1 sequence (P51532 whole entry): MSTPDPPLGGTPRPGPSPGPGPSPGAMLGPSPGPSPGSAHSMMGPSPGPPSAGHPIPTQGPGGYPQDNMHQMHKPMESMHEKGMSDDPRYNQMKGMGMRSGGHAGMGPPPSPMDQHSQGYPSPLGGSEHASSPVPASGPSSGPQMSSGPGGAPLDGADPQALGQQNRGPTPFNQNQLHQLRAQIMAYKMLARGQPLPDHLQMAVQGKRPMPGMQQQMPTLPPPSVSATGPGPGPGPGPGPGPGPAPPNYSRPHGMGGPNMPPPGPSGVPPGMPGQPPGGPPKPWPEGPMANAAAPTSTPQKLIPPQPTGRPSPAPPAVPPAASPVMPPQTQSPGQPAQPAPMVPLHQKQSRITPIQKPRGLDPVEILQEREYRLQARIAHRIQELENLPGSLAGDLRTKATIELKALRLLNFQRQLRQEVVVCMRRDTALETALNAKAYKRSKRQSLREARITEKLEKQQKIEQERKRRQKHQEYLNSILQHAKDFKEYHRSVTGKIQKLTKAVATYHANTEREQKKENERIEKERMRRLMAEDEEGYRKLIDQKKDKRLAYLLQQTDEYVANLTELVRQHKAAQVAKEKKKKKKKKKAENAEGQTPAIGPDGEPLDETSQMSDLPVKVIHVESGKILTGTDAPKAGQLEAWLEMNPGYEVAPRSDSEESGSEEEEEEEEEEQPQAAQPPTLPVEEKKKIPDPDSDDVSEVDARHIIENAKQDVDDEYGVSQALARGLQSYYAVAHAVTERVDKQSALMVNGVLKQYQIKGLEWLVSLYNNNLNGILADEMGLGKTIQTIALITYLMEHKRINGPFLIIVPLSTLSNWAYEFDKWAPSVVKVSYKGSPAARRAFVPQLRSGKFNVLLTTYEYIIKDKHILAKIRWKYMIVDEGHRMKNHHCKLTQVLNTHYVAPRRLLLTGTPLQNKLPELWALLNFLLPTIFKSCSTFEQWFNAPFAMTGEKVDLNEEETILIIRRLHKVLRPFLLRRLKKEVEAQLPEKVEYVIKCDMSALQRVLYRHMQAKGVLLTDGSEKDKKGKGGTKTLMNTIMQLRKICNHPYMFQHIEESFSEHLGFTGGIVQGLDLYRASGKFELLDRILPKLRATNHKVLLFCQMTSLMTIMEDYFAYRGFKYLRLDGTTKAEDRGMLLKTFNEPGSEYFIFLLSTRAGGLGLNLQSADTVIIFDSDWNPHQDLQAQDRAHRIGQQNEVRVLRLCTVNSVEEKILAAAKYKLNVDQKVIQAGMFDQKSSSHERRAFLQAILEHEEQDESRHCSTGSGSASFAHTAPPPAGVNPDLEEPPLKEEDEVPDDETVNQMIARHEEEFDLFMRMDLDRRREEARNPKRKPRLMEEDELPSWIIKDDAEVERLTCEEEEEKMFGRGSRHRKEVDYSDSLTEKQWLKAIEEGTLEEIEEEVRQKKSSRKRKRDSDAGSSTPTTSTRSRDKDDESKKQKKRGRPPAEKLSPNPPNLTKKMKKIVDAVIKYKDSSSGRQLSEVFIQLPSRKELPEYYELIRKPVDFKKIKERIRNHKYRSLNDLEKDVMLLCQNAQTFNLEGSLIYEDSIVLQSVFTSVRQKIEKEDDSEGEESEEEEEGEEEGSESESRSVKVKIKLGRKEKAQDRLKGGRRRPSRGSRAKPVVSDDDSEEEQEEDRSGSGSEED

Row | SMILES | IC50 (BRG-1) | IC50 (BRM)
1 | COC[C@H](NC(=O)c1ccn(C(C)(C)C)c1)C(=O)Nc1nc(-c2ccc3ccn(C4COC4)c(=O)c3c2)cs1 [Compound 603] | < 10 nM | < 10 nM
2 | CCO[C@H](NC(=O)c1ccn(S(C)(=O)=O)c1)C(=O)Nc1nc(-c2cccc([C@H]3CC3(F)F)n2)cs1 [Compound 606] | > 100 nM | > 10 nM
3 | CS(=O)(=O)n1ccc(C(=O)NCC(=O)Nc2nc(-c3cc(Cl)c4c(c3)OCO4)cs2)c1 [Compound 607] | > 10 nM | > 10 nM
4 | CS(=O)(=O)n1ccc(C(=O)NCC(=O)Nc2nc(-c3cccc([C@@H]4CC4(F)F)n3)cs2)c1 [Compound 608] | > 100 nM | > 10 nM
5 | CS(=O)(=O)n1ccc(C(=O)NCC(=O)Nc2nc(-c3cccc([C@H]4CC4(F)F)n3)cs2)c1 [Compound 609] | > 10 nM | > 10 nM
6 | COC[C@H](NC(=O)c1ccn(S(C)(=O)=O)c1)C(=O)Nc1nc(-c2cc(F)cc(OC3CC3)c2)cs1 [Compound 610] | > 10 nM | > 10 nM
7 | COC[C@H](NC(=O)c1ccn(C(C)(C)C)c1)C(=O)Nc1nc(-c2cnc3ccn(C)c(=O)c3c2)cs1 [Compound 611] | > 10 nM | > 10 nM
8 | CS(=O)(=O)n1ccc(C(=O)NCC(=O)Nc2nc(-c3ccc(F)c(OC4CC4)c3F)cs2)c1 [Compound 612] | > 10 nM | > 10 nM
9 | COC[C@H](NC(=O)c1ccn(S(C)(=O)=O)c1)C(=O)Nc1nc(-c2ccc(F)c(OC3CC3)c2F)cs1 [Compound 613] | > 100 nM | > 10 nM
10 | CS(=O)(=O)n1ccc(C(=O)NCC(=O)Nc2nc(-c3ccc(F)c(OC4CC4)n3)cs2)c1 [Compound 614] | > 10 nM | > 10 nM
11 | COC[C@H](NC(=O)c1ccn(C(C)(C)C#N)c1)C(=O)Nc1nc(-c2cccc(-c3cnn(C)n3)c2)cs1 [Compound 615] | < 10 nM | < 10 nM
12 | CS(=O)(=O)n1ccc(C(=O)NCC(=O)Nc2nc(-c3cc(F)c4c(c3)OCO4)cs2)c1 [Compound 616] | < 10 nM | < 10 nM
13 | COC[C@H](NC(=O)c1ccn(S(C)(=O)=O)c1)C(=O)Nc1nc(-c2cc(Cl)c3c(c2)OCO3)cs1 [Compound 617] | > 100 nM | > 10 nM
14 | CS(=O)(=O)n1ccc(C(=O)NCC(=O)Nc2nc(-c3ccc4c(c3)CCO4)cs2)c1 [Compound 619] | > 10 nM | < 10 nM
15 | CC(C)(C)n1ccc(C(=O)NCC(=O)Nc2nc(-c3cccc(N4CCN(c5cccnn5)CC4)n3)cs2)c1 [Compound 627] | > 100 nM | > 10 nM

Next, values leading:

Row | IC50 (BRG-1) | IC50 (BRM) | SMILES
16 | > 10 nM | < 10 nM | N#CC1(n2ccc(C(=O)NCC(=O)Nc3nc(-c4cccc(N5CCC5)c4)cs3)c2)COC1 [Compound 601]
17 | < 10 nM | < 10 nM | C[C@@H]1CN(c2cccc(-c3csc(NC(=O)CNC(=O)c4ccn(C5(C#N)COC5)c4)n3)n2)C[C@H](C)O1 [Compound 602]
18 | > 10 nM | > 10 nM | CC(C)(C)n1ccc(C(=O)NCC(=O)Nc2nc(-c3cccc(N4CCC(C(F)F)C4)n3)cs2)c1 (stereo not shown) [Compound 618]
19 | > 10 nM | > 10 nM | CC(C)(C)n1ccc(C(=O)NCC(=O)Nc2nc(-c3cccc(N4CCC5(COC5)C4)n3)cs2)c1 [Compound 620]
20 | > 100 nM | > 100 nM | C[C@@H]1CN(c2cccc(-c3csc(NC(=O)CNC(=O)c4ccn([C@@]5(C)CC5(F)F)c4)n3)n2)C[C@H](C)O1 [Compound 621]
21 | > 10 nM | < 10 nM | C[C@@H]1CN(c2cccc(-c3csc(NC(=O)CNC(=O)c4ccn([C@]5(C)CC5(F)F)c4)n3)n2)C[C@H](C)O1 [Compound 622]
22 | > 100 nM | > 100 nM | CN(C)[C@H]1CCN(c2cccc(-c3csc(NC(=O)CNC(=O)c4ccn(C(C)(C)C)c4)n3)n2)C1 [Compound 623]
23 | > 100 nM | > 100 nM | CC(C)(C)n1ccc(C(=O)NCC(=O)Nc2nc(-c3cccc(N4CCC5(CCOCC5)C4)n3)cs2)c1 [Compound 624]
24 | > 100 nM | > 100 nM | CC1CN(c2cccc(-c3csc(NC(=O)CNC(=O)c4ccn(C(C)(C)C)c4)n3)n2)C1 [Compound 625]
25 | > 100 nM | > 100 nM | CC(C)(C)n1ccc(C(=O)NCC(=O)Nc2nc(-c3cccc(N4CCC5(CCOC5)CC4)n3)cs2)c1 [Compound 626]
26 | > 100 nM | > 100 nM | CC(C)(C)n1ccc(C(=O)NCC(=O)Nc2nc(-c3cccc(N4CCC5(CC4)CC(F)C5)n3)cs2)c1 [Compound 628]
27 | > 100 nM | > 100 nM | CC(C)(C)n1ccc(C(=O)NCC(=O)Nc2nc(-c3cccc(N4CC(N5CCS(=O)(=O)CC5)C4)n3)cs2)c1 [Compound 629]
28 | > 10 nM | > 10 nM | Cc1nnc(C2CCN(c3cccc(-c4csc(NC(=O)CNC(=O)c5ccn(C(C)(C)C)c5)n4)n3)CC2)o1 [Compound 630]
29 | > 10 nM | > 10 nM | CC(C)(C)n1ccc(C(=O)NCC(=O)Nc2nc(-c3cccc(N4CCC5(CCCCO5)C4)n3)cs2)c1 (stereo not shown) [Compound 631]
